# Data published in patent US8450336B2, “Use of D-serine derivatives for the treatment of anxiety disorders” (priority 2006, dated 2013).
# Several values for one entry are separate records, joined by “and”; a condition that tells them apart may be missing. Equal values may be shown once.
# Assays:
# Sprague-Dawley rats [1] = experiment: Conditioned Emotional Response (CER) assay; assay type: in vivo; conditions: for Total number lever press: 40 min test session; for Total number lever press / Suppression ratio (SR): mean±SEM; for Suppression ratio (SR): at least 10 rats, *p<0.05 vs vehicle; for Efficacy in the CER assay (effect on SR), in words: rat, in vivo; for Magnitude of the SR effect compared with diazepam: diazepam 2 mg/kg i.p
# Method: Male, Sprague-Dawley rats of approximate body weight 350-450 g were placed on a restricted food diet (45 min free access per day) and trained over a 1-2 week period to press a lever for food reward (45 mg food pellet). […] Test session length was for a 40 min test period, and test sessions were run 5 days/week. Once stable response rates were attained, 2 periods of a 2 min light and tone cue (conditioning stimulus, CS) was introduced into the test session. The 2 min CS was terminated by a 0.5 s unavoidable footshock of 0.3-0.8 mA intensity (UCS). The first CS-UCS was at approximately 10 min (range 5-15 min) and the second CS-UCS pairing at approximately 30 min (range 25-35 min) within the test session. On drug test days, and occasional training days, footshock was not delivered. The number of lever presses recorded during the two 2 min CS periods (response A), and the number of lever presses recorded in the 2 min periods immediately prior to the two CS periods (response B) were measured and a suppression ratio (SR) was calculated according to the formula (A/A+B). Thus a SR of 0 reflects no responding during the CS periods, i.e. a complete suppression of lever pressing for food by the CS, and a SR of 0.5 reflects equivalent responding during both the CS and 2 min period prior to CS, i.e. no suppression of lever pressing for food by the CS. Thus in drug untreated animals, SR value was typically 0-0.1 and established anti-anxiety agents such as diazepam increased this value to 0.4-0.5 (for literature examples see Stanhope and Dourish (1996) Psychopharmacol. 128: 293-303; Mirza et al (2005) Psychopharmacol. 180: 159-168). In addition to SR, the total number of lever presses emitted by the animals over the 40 min test session was measured.
# Drug testing was conducted according to a repeated measures design, with each animal receiving each dose of drug treatment or vehicle control in a balanced design. Typically drug testing was conducted on Tuesdays and Fridays, with the animals drug untreated but otherwise run for baseline purposes. In each experiment a standard dose of diazepam (2 mg/kg i.p) was included as a positive control.
# CD-1 mice [2] = experiment: Marble Burying Assay; assay type: in vivo; conditions: for Number of marbles buried: 22 marbles, 30 min, mean±SEM, at least 8 mice
# Method: (§1) Male, experimentally naïve CD-1 mice of body weight range 25-35 g were used in these studies. Following a pretreatment with test drug or vehicle control the animals were singly placed within a Perspex chamber of dimension (48 cm×28 cm×20 cm; L×W×H) containing fresh sawdust bedding onto which 22 marbles were evenly spaced on the surface. After a 30 min period, the mice were removed and the number of marbles that were covered by at least ⅔rd by sawdust were counted as buried. Typically mice will bury a significant proportion of the marbles, probably to hide the potential threat posed by the marbles which represent a novel stimulus to the animal. […] One interpretation for this effect is that diazepam reduces the threat perceived to the animal by the close presence of the marbles (Broekkamp et al, 1986 Eur. J. Pharmacol. 126: 223-229; Nicolas et al, 2006 Eur. J. Pharmacol. 547; 106-115). In a separate group of sex, age and weight matched CD-1 mice, equivalent doses of test compound were evaluated on motor function using a fixed speed (16 r.p.m) rotorod assay. The best score from 3 attempts was recorded, with the maximum test duration of 60 s. Testing was conducted at 40 min post injection, i.e. approximate mid-point of the marble-burying assay.
# Drug testing was run according to a between subjects design. […] The (S)-enantiomer of Lacosamide was ineffective in this assay.
# CD-1 mice [3] = experiment: Fixed speed (16 r.p.m) rotorod assay of motor function; assay type: in vivo; conditions: median of at least 4 mice, maximum score=60 s, 40 min post injection
# Method: as §1
# CD-1 mice [4] = conditions: at doses with no obvious effect on general motor function; literature; cited from earlier work
# Sprague-Dawley rats [5] = conditions: drug untreated animals typically 0-0.1; literature examples; cited from earlier work
# [6] = dose 2 (2 mg/kg i.p, positive control), 2 mg/kg
# [7] = dose 3 (mg/kg), i.p or oral route
# [8] = dose 10 (mg/kg), i.p or oral route
# [9] = dose 30 (mg/kg), i.p or oral route
smiles,measurement,setting,value
"CN1C(=O)CN=C(c2ccccc2)c2cc(Cl)ccc21 [Diazepam, reference compound]",Total number lever press,Sprague-Dawley rats [1]; [6],899 ± 146 and 1015 ± 155 and 1151 ± 138 and 1239 ± 183
same,Suppression ratio (SR),Sprague-Dawley rats [1]; [6],0.39 ± 0.04* and 0.44 ± 0.03* and 0.32 ± 0.07*
same,Number of marbles buried,"CD-1 mice [2]; dose 0.3, i.p or oral route",12.6 ± 1.4
same,Number of marbles buried,"CD-1 mice [2]; dose 1, i.p or oral route",9.4 ± 1.7
same,Number of marbles buried,"CD-1 mice [2]; dose 2, i.p or oral route",2.2 ± 1.2
same,Number of marbles buried,CD-1 mice [2]; [7],2.0 ± 0.8
same,"Efficacy in the marble burying assay, in words","CD-1 mice [2]; mouse, in vivo",produced a similar profile
same,Rotorod score,CD-1 mice [3]; dose 0.3,60 s
same,Rotorod score,CD-1 mice [3]; dose 1,60 s
same,Rotorod score,CD-1 mice [3]; dose 3,40 s
same,"Effect of anti-anxiety drugs on marbles buried by mice, in words",CD-1 mice [4],reduce the number of marbles buried
same,SR value typically reached with established anti-anxiety agents,Sprague-Dawley rats [5],0.4-0.5
"COC[C@H](NC(C)=O)C(=O)NCc1ccccc1 (single isomer, unassigned) [(S)-enantiomer of Lacosamide, reference compound]",Total number lever press,Sprague-Dawley rats [1]; dose 30 (mg/kg),1403 ± 158
same,Suppression ratio (SR),Sprague-Dawley rats [1]; dose 30 (mg/kg),0.06 ± 0.03
same,"Efficacy in the CER assay (effect on SR), in words",Sprague-Dawley rats [1],ineffective
same,"Efficacy in the marble burying assay, in words","CD-1 mice [2]; mouse, in vivo",ineffective
"COC[C@@H](NC(C)=O)C(=O)NCc1ccccc1 [Lacosamide, (+)-(2R)-2-(acetylamino)-N-benzyl-3-methoxypropanamide, reference compound]",Magnitude of the SR effect compared with diazepam,Sprague-Dawley rats [1],equivalent to diazepam
same,Total number lever press,Sprague-Dawley rats [1]; dose 3 (mg/kg),1166 ± 185
same,Suppression ratio (SR),Sprague-Dawley rats [1]; dose 3 (mg/kg),0.16 ± 0.07
same,Total number lever press,Sprague-Dawley rats [1]; dose 10 (mg/kg),1121 ± 138
same,Suppression ratio (SR),Sprague-Dawley rats [1]; dose 10 (mg/kg),0.18 ± 0.08
same,Total number lever press,Sprague-Dawley rats [1]; dose 30 (mg/kg),727 ± 123
same,Suppression ratio (SR),Sprague-Dawley rats [1]; dose 30 (mg/kg),0.36 ± 0.07*
same,"Efficacy in the CER assay (effect on SR value), in words",Sprague-Dawley rats [1]; doses 3-30 mg/kg i.p.,significantly increasing the SR value
same,Number of marbles buried,CD-1 mice [2]; [7],16.8 ± 0.8
same,Number of marbles buried,CD-1 mice [2]; [8],18.0 ± 0.7
same,Number of marbles buried,CD-1 mice [2]; [9],12.4 ± 1.4
same,"Efficacy in the marble burying assay, in words","CD-1 mice [2]; oral doses of 3-30 mg/kg, compared to vehicle pretreated controls",significantly reducing the number of marbles buried
same,Rotorod score,CD-1 mice [3]; dose 3,60 s
same,Rotorod score,CD-1 mice [3]; dose 10,60 s
same,Rotorod score,CD-1 mice [3]; dose 30,60 s
CC(=O)NC(COC(F)F)C(=O)NCc1ccccc1 (stereo not drawn),melting point,,173.3 °C
"CC(=O)N[C@H](COC(F)F)C(=O)NCc1ccc(F)cc1 [Example 20.1, (2R)-2-(Acetylamino)-3-(difluoromethoxy)-N-(4-fluorobenzyl)propanamide]",Magnitude of the SR effect compared with diazepam,Sprague-Dawley rats [1],equivalent to diazepam
same,Total number lever press,Sprague-Dawley rats [1]; dose 3 (mg/kg),1188 ± 95
same,Suppression ratio (SR),Sprague-Dawley rats [1]; dose 3 (mg/kg),0.17 ± 0.06
same,Total number lever press,Sprague-Dawley rats [1]; dose 10 (mg/kg),1170 ± 98
same,Suppression ratio (SR),Sprague-Dawley rats [1]; dose 10 (mg/kg),0.28 ± 0.07*
same,Total number lever press,Sprague-Dawley rats [1]; dose 20 (mg/kg),849 ± 78
same,Suppression ratio (SR),Sprague-Dawley rats [1]; dose 20 (mg/kg),0.33 ± 0.06*
same,Total number lever press,Sprague-Dawley rats [1]; dose 30 (mg/kg),587 ± 84
same,Suppression ratio (SR),Sprague-Dawley rats [1]; dose 30 (mg/kg),0.43 ± 0.05*
same,"Efficacy in the CER assay (effect on SR), in words",Sprague-Dawley rats [1],active in increasing the SR in a dose-related manner
same,Number of marbles buried,CD-1 mice [2]; [7],15.0 ± 1.2
same,Number of marbles buried,CD-1 mice [2]; [8],14.9 ± 0.9
same,Number of marbles buried,CD-1 mice [2]; [9],10.3 ± 1.5
same,"Efficacy in the marble burying assay, in words","CD-1 mice [2]; mouse, in vivo",active in decreasing marble burying in a dose-related manner
same,melting point,,162.7 °C
same,Rotorod score,CD-1 mice [3]; dose 3,60 s
same,Rotorod score,CD-1 mice [3]; dose 10,60 s
same,Rotorod score,CD-1 mice [3]; dose 30,60 s
"CC(=O)N[C@H](COC(F)F)C(=O)NCc1ccc(Cl)cc1 [Example 23.1, (2R)-2-(acetylamino)-N-(4-chlorobenzyl)-3-(difluoromethoxy)propanamide]",Magnitude of the SR effect compared with diazepam,Sprague-Dawley rats [1],equivalent to diazepam
same,Total number lever press,Sprague-Dawley rats [1]; dose 3 (mg/kg),1091 ± 169
same,Suppression ratio (SR),Sprague-Dawley rats [1]; dose 3 (mg/kg),0.09 ± 0.04
same,Total number lever press,Sprague-Dawley rats [1]; dose 10 (mg/kg),1034 ± 131
same,Suppression ratio (SR),Sprague-Dawley rats [1]; dose 10 (mg/kg),0.17 ± 0.04*
same,Total number lever press,Sprague-Dawley rats [1]; dose 30 (mg/kg),578 ± 79
same,Suppression ratio (SR),Sprague-Dawley rats [1]; dose 30 (mg/kg),0.26 ± 0.04*
same,"Efficacy in the CER assay (effect on SR), in words",Sprague-Dawley rats [1],active in increasing the SR in a dose-related manner
same,Number of marbles buried,CD-1 mice [2]; [7],15.8 ± 0.8
same,Number of marbles buried,CD-1 mice [2]; [8],12.3 ± 1.2
same,Number of marbles buried,CD-1 mice [2]; [9],2.0 ± 0.7
same,"Efficacy in the marble burying assay, in words","CD-1 mice [2]; mouse, in vivo",active in decreasing marble burying in a dose-related manner
same,Rotorod score,CD-1 mice [3]; dose 3,60 s
same,Rotorod score,CD-1 mice [3]; dose 10,60 s
same,Rotorod score,CD-1 mice [3]; dose 30,60 s
"CC(=O)N[C@H](COC(F)F)C(=O)NCc1ccccc1 [Example 19.1, (2R)-2-(Acetylamino)-N-benzyl-3-(difluoromethoxy)propanamide]",Magnitude of the SR effect compared with diazepam,Sprague-Dawley rats [1],equivalent to diazepam
same,Total number lever press,Sprague-Dawley rats [1]; dose 3 (mg/kg),1169 ± 145
same,Suppression ratio (SR),Sprague-Dawley rats [1]; dose 3 (mg/kg),0.16 ± 0.03
same,Total number lever press,Sprague-Dawley rats [1]; dose 10 (mg/kg),1093 ± 169
same,Suppression ratio (SR),Sprague-Dawley rats [1]; dose 10 (mg/kg),0.15 ± 0.05
same,Total number lever press,Sprague-Dawley rats [1]; dose 30 (mg/kg),724 ± 135
same,Suppression ratio (SR),Sprague-Dawley rats [1]; dose 30 (mg/kg),0.38 ± 0.04*
same,"Efficacy in the CER assay (effect on SR), in words",Sprague-Dawley rats [1],active in increasing the SR in a dose-related manner
same,Number of marbles buried,CD-1 mice [2]; [7],17.0 ± 1.1
same,Number of marbles buried,CD-1 mice [2]; [8],9.7 ± 2.3
same,Number of marbles buried,CD-1 mice [2]; [9],2.3 ± 2.0
same,"Efficacy in the marble burying assay, in words","CD-1 mice [2]; mouse, in vivo",active in decreasing marble burying in a dose-related manner
same,melting point,,186.9 °C
same,Rotorod score,CD-1 mice [3]; dose 3,60 s
same,Rotorod score,CD-1 mice [3]; dose 10,60 s
same,Rotorod score,CD-1 mice [3]; dose 30,13 s
